In article PMC9603010 (ACS Bio & Med Chem Au, 2022):
Where a name gives a salt, the structure may show the parent alone.

How the values were obtained:
[1] = system: HEK293T cells; settings: 48 h, multiple concentrations
[2] = system: SARS-CoV-2 (USA-WA1/2020); type: cell-based

NC(CO)C(=O)NNCc1ccc(O)c(O)c1O (stereo not drawn) [benserazide, reference compound]
impact on cell viability [1]: without significant impact on cell viability

O=C(O[C@@H]1Cc2c(O)cc(O)cc2O[C@@H]1c1cc(O)c(O)c(O)c1)c1cc(O)c(O)c(O)c1 [epigallocatechin gallate]
impact on cell viability [1]: without significant impact on cell viability

c1ccc2c(c1)OCC(C1=NCCN1)O2 (stereo not drawn) [idazoxan hydrochloride, reference compound]
reduction of the number of infected cells compared to vehicle [2]: more than 90%

c1ccc2c(c1)OCC(C1=NCCN1)O2 (stereo not drawn) [idazoxan, reference compound]
impact on cell viability [1]: without significant impact on cell viability

COc1c(-c2coc3cc4c(cc3c2=O)CC(O)C(C)(C)O4)ccc2c1C=CC(C)(C)O2 (stereo not drawn) [mundulone]
impact on cell viability [1]: without significant impact on cell viability

C=C1C(=O)O[C@H]2[C@H]1CC/C(C)=C/CC[C@@]1(C)O[C@@H]21 [parthenolide]
impact on cell viability [1]: without significant impact on cell viability
